Laboratory results from BindingDB's records for doi:10.1016/j.ejmech.2008.01.010 (Universit&#233, 2008).
Where a name gives a salt, the structure may show the parent alone.

How the values were obtained:
[1] = target: Insulin-like growth factor 1 receptor (Homo sapiens, UniProt P08069); experiment: Inhibition of IGF1R
[2] = target: Hepatocyte growth factor receptor (Homo sapiens, UniProt P08581); experiment: Inhibition of cMet
[3] = target: Tyrosine-protein kinase ABL1 (Homo sapiens, UniProt P00519); experiment: Inhibition of c-Abl
Sequence of Tyrosine-protein kinase ABL1 (P00519 whole entry): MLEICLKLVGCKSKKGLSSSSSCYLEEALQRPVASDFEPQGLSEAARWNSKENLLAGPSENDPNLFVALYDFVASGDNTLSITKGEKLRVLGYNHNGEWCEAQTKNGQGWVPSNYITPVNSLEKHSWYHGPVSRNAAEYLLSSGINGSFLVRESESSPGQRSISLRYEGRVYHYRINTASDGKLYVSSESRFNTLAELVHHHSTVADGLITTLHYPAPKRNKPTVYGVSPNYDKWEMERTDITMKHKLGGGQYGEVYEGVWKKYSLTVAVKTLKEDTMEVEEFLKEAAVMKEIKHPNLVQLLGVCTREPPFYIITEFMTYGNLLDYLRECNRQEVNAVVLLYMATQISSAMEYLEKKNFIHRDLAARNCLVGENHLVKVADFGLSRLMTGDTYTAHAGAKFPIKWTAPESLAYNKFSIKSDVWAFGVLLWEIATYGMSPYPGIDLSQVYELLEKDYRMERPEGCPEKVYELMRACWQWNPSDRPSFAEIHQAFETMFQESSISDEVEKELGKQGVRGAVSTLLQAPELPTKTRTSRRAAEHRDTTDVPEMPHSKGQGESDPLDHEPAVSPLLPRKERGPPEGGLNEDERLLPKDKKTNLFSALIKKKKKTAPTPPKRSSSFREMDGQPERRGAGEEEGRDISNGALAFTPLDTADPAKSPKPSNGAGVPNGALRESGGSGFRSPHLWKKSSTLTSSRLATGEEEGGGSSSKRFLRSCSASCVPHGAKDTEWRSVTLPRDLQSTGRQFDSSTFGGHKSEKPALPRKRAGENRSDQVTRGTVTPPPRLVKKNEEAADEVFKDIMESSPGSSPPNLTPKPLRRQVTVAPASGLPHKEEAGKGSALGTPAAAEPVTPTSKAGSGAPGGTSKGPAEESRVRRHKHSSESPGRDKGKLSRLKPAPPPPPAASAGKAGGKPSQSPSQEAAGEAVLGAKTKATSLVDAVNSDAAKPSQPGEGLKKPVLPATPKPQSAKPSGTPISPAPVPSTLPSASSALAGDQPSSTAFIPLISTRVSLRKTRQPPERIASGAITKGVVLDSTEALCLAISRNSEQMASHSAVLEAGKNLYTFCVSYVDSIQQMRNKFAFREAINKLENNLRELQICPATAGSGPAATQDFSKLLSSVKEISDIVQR

[4] = target: Proto-oncogene tyrosine-protein kinase Src (Homo sapiens, UniProt P12931); experiment: Inhibition of Src
[5] = target: Vascular endothelial growth factor receptor 2 (Homo sapiens, UniProt P35968); experiment: Inhibition of KDR
Sequence of Vascular endothelial growth factor receptor 2 (P35968 whole entry): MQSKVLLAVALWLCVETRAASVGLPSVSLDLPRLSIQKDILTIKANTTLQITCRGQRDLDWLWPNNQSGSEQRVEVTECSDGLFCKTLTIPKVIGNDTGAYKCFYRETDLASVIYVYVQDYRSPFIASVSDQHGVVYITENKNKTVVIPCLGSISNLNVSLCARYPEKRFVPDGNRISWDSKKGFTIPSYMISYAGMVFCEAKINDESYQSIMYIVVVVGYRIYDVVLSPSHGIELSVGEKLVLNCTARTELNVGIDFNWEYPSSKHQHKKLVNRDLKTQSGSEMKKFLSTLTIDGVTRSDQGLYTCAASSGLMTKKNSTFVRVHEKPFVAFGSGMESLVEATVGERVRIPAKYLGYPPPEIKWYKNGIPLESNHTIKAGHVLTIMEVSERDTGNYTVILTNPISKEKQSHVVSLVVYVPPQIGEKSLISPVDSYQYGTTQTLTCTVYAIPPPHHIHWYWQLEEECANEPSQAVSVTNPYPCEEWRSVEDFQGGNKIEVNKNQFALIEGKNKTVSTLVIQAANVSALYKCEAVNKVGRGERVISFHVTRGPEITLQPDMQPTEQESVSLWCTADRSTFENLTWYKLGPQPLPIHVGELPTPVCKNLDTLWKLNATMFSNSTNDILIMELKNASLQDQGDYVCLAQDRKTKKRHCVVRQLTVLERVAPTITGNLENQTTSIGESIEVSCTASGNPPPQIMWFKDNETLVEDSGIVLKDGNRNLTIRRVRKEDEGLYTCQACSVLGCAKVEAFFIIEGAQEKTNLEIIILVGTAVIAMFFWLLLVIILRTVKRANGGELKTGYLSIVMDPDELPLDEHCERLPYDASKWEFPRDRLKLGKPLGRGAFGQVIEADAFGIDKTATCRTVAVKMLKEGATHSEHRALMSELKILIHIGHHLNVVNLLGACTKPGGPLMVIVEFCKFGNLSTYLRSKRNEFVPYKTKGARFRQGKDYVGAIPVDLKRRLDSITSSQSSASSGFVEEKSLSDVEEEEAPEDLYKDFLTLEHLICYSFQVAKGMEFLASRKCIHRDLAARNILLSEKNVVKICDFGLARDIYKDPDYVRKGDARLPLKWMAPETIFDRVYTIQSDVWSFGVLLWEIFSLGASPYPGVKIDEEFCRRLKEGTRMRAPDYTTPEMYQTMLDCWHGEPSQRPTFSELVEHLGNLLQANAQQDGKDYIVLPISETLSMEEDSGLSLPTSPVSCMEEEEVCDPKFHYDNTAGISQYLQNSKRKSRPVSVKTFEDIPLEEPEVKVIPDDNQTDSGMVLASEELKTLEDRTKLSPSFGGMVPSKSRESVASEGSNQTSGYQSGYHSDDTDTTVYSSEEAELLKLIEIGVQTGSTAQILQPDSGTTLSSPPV

[6] = target: Proto-oncogene tyrosine-protein kinase receptor Ret (Homo sapiens, UniProt P07949); experiment: Inhibition of Ret
Sequence of Proto-oncogene tyrosine-protein kinase receptor Ret (P07949 whole entry): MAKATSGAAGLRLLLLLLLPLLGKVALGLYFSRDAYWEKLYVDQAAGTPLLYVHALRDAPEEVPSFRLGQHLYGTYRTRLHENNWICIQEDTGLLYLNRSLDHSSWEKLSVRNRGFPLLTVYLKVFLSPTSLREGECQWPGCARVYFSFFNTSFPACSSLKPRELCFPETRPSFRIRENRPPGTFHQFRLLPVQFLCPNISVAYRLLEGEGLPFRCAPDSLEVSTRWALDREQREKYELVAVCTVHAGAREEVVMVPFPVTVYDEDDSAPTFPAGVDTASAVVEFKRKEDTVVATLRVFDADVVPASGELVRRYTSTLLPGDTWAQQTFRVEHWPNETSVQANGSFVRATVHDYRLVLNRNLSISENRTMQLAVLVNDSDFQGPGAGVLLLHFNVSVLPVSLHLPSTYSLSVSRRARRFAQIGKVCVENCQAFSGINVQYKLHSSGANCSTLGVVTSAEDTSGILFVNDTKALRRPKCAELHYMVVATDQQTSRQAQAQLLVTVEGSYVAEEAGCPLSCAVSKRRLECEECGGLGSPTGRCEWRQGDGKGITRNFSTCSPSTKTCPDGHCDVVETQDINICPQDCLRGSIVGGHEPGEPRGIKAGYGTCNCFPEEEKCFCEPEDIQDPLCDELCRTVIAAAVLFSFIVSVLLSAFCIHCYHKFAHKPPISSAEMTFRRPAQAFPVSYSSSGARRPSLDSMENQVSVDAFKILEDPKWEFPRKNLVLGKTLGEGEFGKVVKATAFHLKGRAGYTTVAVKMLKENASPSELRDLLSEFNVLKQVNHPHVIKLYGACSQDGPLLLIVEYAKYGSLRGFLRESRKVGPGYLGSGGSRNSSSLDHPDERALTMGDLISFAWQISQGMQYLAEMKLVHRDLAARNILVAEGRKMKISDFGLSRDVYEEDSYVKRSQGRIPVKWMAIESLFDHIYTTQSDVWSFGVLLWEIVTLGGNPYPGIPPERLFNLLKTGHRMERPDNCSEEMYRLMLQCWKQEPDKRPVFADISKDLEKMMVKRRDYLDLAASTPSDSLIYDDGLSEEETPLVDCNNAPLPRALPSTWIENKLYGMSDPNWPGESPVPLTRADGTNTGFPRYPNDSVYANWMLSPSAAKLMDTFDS

Measured: IC50

Sequence of Hepatocyte growth factor receptor (P08581 whole entry): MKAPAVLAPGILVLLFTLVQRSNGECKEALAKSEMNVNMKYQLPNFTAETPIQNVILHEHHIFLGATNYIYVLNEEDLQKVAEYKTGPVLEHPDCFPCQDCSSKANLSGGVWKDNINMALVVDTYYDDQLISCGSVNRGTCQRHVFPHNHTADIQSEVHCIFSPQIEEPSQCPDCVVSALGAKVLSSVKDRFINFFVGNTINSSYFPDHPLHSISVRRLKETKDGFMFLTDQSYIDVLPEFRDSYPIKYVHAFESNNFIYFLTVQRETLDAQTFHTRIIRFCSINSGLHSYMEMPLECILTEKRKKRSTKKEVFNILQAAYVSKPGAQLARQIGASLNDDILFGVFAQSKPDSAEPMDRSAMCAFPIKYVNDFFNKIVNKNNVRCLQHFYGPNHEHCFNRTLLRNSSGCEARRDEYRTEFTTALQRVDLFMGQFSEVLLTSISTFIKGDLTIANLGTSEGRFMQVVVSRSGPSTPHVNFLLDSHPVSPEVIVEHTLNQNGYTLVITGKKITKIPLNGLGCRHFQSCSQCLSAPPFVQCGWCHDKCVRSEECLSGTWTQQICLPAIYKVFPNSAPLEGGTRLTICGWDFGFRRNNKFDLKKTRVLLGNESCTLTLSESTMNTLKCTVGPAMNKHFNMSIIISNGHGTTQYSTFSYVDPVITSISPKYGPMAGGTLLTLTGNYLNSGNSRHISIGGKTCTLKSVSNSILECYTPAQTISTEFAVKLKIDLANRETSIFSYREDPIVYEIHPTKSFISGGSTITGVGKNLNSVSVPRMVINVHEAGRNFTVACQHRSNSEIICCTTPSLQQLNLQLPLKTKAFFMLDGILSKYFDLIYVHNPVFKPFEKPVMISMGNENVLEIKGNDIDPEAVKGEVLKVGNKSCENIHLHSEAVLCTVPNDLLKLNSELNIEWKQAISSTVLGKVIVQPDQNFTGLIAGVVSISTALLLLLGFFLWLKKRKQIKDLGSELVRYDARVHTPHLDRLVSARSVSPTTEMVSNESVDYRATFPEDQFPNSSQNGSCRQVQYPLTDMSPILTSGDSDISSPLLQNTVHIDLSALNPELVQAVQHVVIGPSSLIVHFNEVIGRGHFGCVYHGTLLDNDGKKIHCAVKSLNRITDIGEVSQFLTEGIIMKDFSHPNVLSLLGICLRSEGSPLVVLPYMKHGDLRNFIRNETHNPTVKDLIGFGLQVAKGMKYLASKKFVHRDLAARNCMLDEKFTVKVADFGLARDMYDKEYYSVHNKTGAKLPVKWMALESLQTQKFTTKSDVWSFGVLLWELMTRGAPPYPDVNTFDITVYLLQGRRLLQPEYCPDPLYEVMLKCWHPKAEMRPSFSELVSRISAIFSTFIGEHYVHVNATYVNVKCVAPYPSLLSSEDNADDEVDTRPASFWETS

N[C@@H](CCCCN=CC1C(=O)Nc2ccccc21)C(=O)O (stereo partly drawn) [(Z/E)-(2S)-2-amino-6-([(2-oxo-indolin-3-ylidene)methyl]amino)hexanoic acid hydrochloride]
> 10 µM: all assays above

N[C@@H](CCCN=CC1C(=O)Nc2ccccc21)C(=O)O (stereo partly drawn) [(Z/E)-(2S)-2-amino-5-([(2-oxo-indolin-3-ylidene)methyl]amino)pentanoic acid hydrochloride]
> 10 µM: all assays above

N[C@@H](CCCCN=CC1C(=O)Nc2ccc(Br)cc21)C(=O)O (stereo partly drawn) [(Z/E)-(2S)-2-amino-6-([(5-bromo-2-oxo-indolin-3-ylidene)methyl]amino)hexanoic acid hydrochloride]
> 10 µM: all assays above
